Assay results: ChEMBL document CHEMBL4619803, “Stepwise Design of γ-Secretase Modulators with an Advanced Profile by Judicious Coordinated Structural Replacements and an Unconventional Phenyl Ring Bioisostere” (J Med Chem, 2020)
Converted amounts (≈) assume the structure as drawn.

Experiments:
[1] = Fraction unbound in mouse plasma; format: ADME, cell-free
[2] = Fraction unbound in 10% fetal calf serum; format: ADME, cell-free, Bos taurus; settings: cattle
Mus musculus [3] = assay: In vivo modulation of gamma secretase in APP-Swedish transgenic mouse assessed as reduction in Abeta42 production by measuring remaining Abeta42 level at 10 mg/kg, po measured after 4 hrs by ELISA or AlphaLISA assay relative to control; format: functional
Mus musculus [4] = assay: In vivo modulation of gamma secretase in APP-Swedish transgenic mouse assessed as reduction in Abeta42 production by measuring remaining Abeta42 level at 30 mg/kg, po measured after 4 hrs by ELISA or AlphaLISA assay relative to control; format: functional
[5] = Covalent protein binding in human liver microsomes assessed per mg protein in presence of NADPH; format: ADME, Microsome
Mus musculus [6] = species: Mus musculus; assay: (§1) Modulation of mouse gamma secretase assessed as reduction in Abeta42 production
[7] = as §1
Mus musculus [8] = assay: In vivo modulation of gamma secretase in po dosed APP-Swedish transgenic mouse assessed as reduction in total Abeta42 production level in brain administered as single dose by ELISA or AlphaLISA assay; format: functional, organism-based; settings: for IC50: Mus musculus
Mus musculus [9] = assay: In vivo modulation of gamma secretase in APP-Swedish transgenic mouse assessed as reduction in Abeta42 production by measuring remaining Abeta42 level at 3 mg/kg, po measured after 4 hrs by ELISA or AlphaLISA assay relative to control; format: functional
Gamma-secretase = assay: (§2) Modulation of gamma secretase in human H4 cells over expressing human APP695 harboring K595N/M596L Swedish double mutant assessed as reduction in Abeta42 production after 24 hrs by Alphalisa assay; format: cell-based
[10] = target: Gamma-secretase (Homo sapiens) (UniProt Q96BI3+Q9NZ42+Q8WW43+P49768+Q92542+P49810); assay: as §2; format: cell-based
[11] = Fraction unbound in human plasma; format: ADME, cell-free
Mus musculus [12] = assay: In vivo modulation of gamma secretase in APP-Swedish transgenic mouse assessed as reduction in Abeta42 production by measuring remaining Abeta42 level at 1 mg/kg, po measured after 4 hrs by ELISA or AlphaLISA assay relative to control; format: functional
[13] = Solubility of compound by lyophilisation solubility assay; format: physicochemical
Mus musculus [14] = assay: In vivo modulation of gamma secretase in APP-Swedish transgenic mouse assessed as reduction in Abeta42 production by measuring remaining Abeta42 level at 0.3 mg/kg, po measured after 4 hrs by ELISA or AlphaLISA assay relative to control; format: functional
Melanocyte = assay: Phototoxicity in human Melanocytes in presence of UVA at 320 to 400 nm; format: cell-based; settings: light or radiation study
[15] = Dark toxicity in human Keratinocytes assessed as reduction in cell viability; format: cell-based, Keratinocyte
[16] = Clearance in mouse hepatocytes assessed per million cells; format: ADME, cell-based, Hepatocyte; settings: read-out: CLH
[17] = Dark toxicity in human Melanocytes assessed as reduction in cell viability; format: cell-based, Melanocyte
Keratinocyte = assay: Phototoxicity in human Keratinocytes in presence of UVA at 320 to 400 nm; format: cell-based; settings: light or radiation study
[18] = Octanol/water distribution co-efficient, log D of the compound at pH 7.4; format: physicochemical
[19] = Ratio of IC50 for dark toxicity in human Melanocytes to IC50 for phototoxicity in human Melanocytes in presence of UVA at 320 to 400 nm; format: cell-based, Melanocyte; settings: read-out: Ratio IC50
[20] = target: Phosphatidylinositol 4-kinase beta (Homo sapiens, UniProt Q9UBF8); assay: Binding affinity to PIK4CB (unknown origin); format: ADME
Chain of Phosphatidylinositol 4-kinase beta (Q9UBF8 whole entry): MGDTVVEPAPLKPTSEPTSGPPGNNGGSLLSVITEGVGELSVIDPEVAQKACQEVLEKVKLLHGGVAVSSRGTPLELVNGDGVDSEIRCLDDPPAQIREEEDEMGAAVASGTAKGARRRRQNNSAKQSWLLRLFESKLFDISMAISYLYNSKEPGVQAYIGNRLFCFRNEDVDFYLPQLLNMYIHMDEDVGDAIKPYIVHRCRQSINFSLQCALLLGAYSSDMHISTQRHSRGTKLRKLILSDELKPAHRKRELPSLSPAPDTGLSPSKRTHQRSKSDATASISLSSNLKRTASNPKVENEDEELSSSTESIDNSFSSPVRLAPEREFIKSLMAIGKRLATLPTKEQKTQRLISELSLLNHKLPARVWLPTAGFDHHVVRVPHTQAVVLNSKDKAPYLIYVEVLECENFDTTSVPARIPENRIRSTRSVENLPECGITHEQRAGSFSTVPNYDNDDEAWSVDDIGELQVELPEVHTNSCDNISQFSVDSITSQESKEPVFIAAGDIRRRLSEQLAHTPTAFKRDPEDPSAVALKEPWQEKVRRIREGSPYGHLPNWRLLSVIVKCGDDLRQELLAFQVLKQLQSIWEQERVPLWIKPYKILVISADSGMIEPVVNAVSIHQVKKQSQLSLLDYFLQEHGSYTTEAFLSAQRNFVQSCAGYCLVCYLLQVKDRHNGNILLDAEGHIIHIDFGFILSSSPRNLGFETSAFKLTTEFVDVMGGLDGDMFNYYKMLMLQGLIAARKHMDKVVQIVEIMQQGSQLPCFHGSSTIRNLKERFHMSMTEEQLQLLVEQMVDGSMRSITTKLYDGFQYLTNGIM

[21] = target: Voltage-gated inwardly rectifying potassium channel KCNH2 (Homo sapiens, UniProt Q12809); assay: (§3) Inhibition of human ERG
Chain of Voltage-gated inwardly rectifying potassium channel KCNH2 (Q12809 whole entry): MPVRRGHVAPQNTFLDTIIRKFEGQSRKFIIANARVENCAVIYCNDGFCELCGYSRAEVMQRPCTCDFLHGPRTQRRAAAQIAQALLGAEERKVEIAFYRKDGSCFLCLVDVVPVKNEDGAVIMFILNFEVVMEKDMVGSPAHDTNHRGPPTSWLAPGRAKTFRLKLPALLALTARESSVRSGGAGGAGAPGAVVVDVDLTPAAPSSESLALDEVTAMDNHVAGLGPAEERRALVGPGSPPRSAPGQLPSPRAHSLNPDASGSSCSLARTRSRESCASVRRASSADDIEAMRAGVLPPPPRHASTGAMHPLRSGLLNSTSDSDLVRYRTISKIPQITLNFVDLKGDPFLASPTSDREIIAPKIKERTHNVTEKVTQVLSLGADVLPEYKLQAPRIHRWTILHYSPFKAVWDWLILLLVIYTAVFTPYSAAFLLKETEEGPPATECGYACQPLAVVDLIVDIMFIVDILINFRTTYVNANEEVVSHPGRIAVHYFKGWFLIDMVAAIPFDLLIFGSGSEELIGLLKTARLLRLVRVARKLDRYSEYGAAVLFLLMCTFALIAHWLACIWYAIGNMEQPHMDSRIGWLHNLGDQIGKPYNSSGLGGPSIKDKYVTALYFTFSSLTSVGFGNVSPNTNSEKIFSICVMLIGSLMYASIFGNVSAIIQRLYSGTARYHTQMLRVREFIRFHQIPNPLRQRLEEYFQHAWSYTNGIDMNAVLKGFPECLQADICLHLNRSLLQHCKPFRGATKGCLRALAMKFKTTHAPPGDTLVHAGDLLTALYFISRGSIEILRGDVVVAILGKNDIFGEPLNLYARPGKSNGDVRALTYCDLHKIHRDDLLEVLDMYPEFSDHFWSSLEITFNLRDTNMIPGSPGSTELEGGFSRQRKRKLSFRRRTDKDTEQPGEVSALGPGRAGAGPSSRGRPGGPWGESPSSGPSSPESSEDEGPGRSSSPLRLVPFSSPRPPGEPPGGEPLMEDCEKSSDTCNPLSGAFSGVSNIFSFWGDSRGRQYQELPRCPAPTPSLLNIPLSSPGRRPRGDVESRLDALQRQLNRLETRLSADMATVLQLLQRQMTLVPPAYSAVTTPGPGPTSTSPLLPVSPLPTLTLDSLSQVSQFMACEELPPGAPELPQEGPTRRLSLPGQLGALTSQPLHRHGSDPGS

hERG (KCNH2) = hERG (KCNH2) (Homo sapiens, UniProt Q12809); assay: as §3; settings: human
Chain of hERG (KCNH2) (Q12809 whole entry): as above

[22] = Ratio of IC50 for dark toxicity in human Keratinocytes to IC50 for phototoxicity in human Keratinocytes in presence of UVA at 320 to 400 nm; format: cell-based, Keratinocyte; settings: read-out: Ratio IC50
[23] = Clearance in human hepatocytes assessed per million cells; format: ADME, cell-based, Hepatocyte; settings: read-out: CLH
[24] = Dose normalized AUC (infinity) in rat at 2 mg/kg, po via gavage measured over 24 hrs; format: ADME, organism-based; settings: in vivo
[25] = Oral bioavailability in rat at 2 mg/kg via gavage measured over 24 hrs; format: ADME, organism-based; settings: in vivo
[26] = Cytotoxicity against human embryonic stem cells assessed as reduction in cell viability; format: cell-based
[27] = Terminal half life in rat at 1 mg/kg, iv bolus measured over 24 hrs; format: ADME, organism-based; settings: in vivo, read-out: beta t1/2 (converted)
[28] = Solubility of the compound in fasted state simulated intestinal fluid; format: physicochemical; settings: simulated gi fluid
[29] = Terminal half life in minipig at 1 mg/kg, iv bolus measured over 240 hrs; format: ADME, organism-based, Sus scrofa domesticus; settings: pig, in vivo, read-out: beta t1/2 (converted)
[30] = Volume of distribution at steady state in rat at 1 mg/kg, iv bolus measured over 24 hrs; format: ADME, organism-based; settings: in vivo, read-out: Vdss
[31] = Clearance in minipig at 1 mg/kg, iv bolus measured over 240 hrs; format: ADME, organism-based, Sus scrofa domesticus; settings: pig, in vivo
[32] = Fraction unbound in rat plasma; format: ADME, cell-free
[33] = Volume of distribution at steady state in minipig at 1 mg/kg, iv bolus measured over 240 hrs; format: ADME, organism-based, Sus scrofa domesticus; settings: pig, in vivo, read-out: Vdss
[34] = Solubility in fed state simulated intestinal fluids; format: physicochemical; settings: simulated gi fluid
[35] = Clearance in rat at 1 mg/kg, iv bolus measured over 24 hrs; format: ADME, organism-based; settings: in vivo
[36] = Mutagenicity in Salmonella typhimurium by Ames test; format: toxicity; settings: salmonella enterica subsp. enterica serovar typhimurium
[37] = Dose normalized AUC (infinity) in minipig at 3 mg/kg, po via gavage measured over 240 hrs; format: ADME, organism-based, Sus scrofa domesticus; settings: pig, in vivo
[38] = Thermodynamic solubility of the compound; format: physicochemical
[39] = Oral bioavailability in minipig at 3 mg/kg via gavage measured over 240 hrs; format: ADME, organism-based, Sus scrofa domesticus; settings: pig, in vivo
[40] = Clearance in rat hepatocytes assessed per million cell; format: ADME, cell-based, Hepatocyte; settings: read-out: CLH

Row | fraction unbound [1] | fraction unbound [2] | PB [5] | fIC50 (Mus musculus [6]) | IC50 [7] | IC50 (Mus musculus [8]) | IC50 (Gamma-secretase) | fIC50 [10] | fraction unbound [11] | solubility [13] | hepatocyte CLint [16] | logD [18] | Kd [20] | SMILES | remaining Abeta42 level (% of control) (Mus musculus [3]) | fIC50 (Mus musculus [8]) | remaining Abeta42 level (% of control) (Mus musculus [9]) | IC50 (Melanocyte) | IC50 (Keratinocyte) | IC50 [21] | IC20 (hERG (KCNH2)) | other results
1 | 0.0029 | 0.06 | 149 pmol | 2.3 nM | 38 nM | 2870 nM | 55 nM | 3.3 nM | 0.0003 | – | – | – | – | Cc1nsc(N2CC[C@@H](Nc3nc4c(-c5ccc(F)c(F)c5F)cccn4n3)C(F)(F)C2)n1 | 46% | 8 nM | 64% | – | – | – | – | Activity (Mus musculus [4]): 31%
2 | 0.003 | 0.22 | 105 pmol | 0.9 nM | 4 nM | 160 nM | 4.5 nM | 1 nM | 0.004 | 3.8 to 3.86 µg/mL (≈ 8.06 to 8.19 µM) | 5.4 µL/min/1e6 cells | 4.1 to 4.14 | 120 nM | Cc1nsc(N2CC3CCC(C2)C3Nc2nc3c(-c4ccc(F)c(F)c4F)cccn3n2)n1 (stereo not drawn) | 22% | 0.5 nM | 27% | 1670 nM | 1670 nM | < 2000 nM | < 1000 nM | Activity (Mus musculus [12]): 56%; Activity (Mus musculus [14]): 75%; IC50 [15]: > 38000 nM; IC50 [17]: > 38000 nM; selectivity ratio [19]: 22.9 to 23; selectivity ratio [22]: 22.9 to 23; hepatocyte CLint [23]: 6.6 µL/min/1e6 cells
3 | 0.043 | – | – | 14 nM | 21 nM | 40 nM | 30 nM | 19 nM | 0.05 | 82 µg/mL (≈ 162 µM) | 3.4 µL/min/1e6 cells | 3.8 to 3.85 | > 40000 nM | Cc1nnc(N2C[C@H]3CC[C@@H](C2)[C@@H]3Nc2nc3c(O[C@@H](C)C(F)(F)F)ccc(C(F)(F)F)n3n2)o1 | – | – | – | 25000 nM | 25000 nM | > 20000 nM | 5400 nM | AUC/dose [24]: 1748 kg·ng·h/mL/mg; bioavailability [25]: 33%; Activity [26]: Non-Toxic; half-life [27]: 8.1 h; solubility [28]: 234 µg/mL (≈ 463 µM); half-life [29]: 6.7 h; Vd [30]: 2.2 L/kg; clearance [31]: 3.35 mL/min/kg; fraction unbound [32]: 0.059; Vd [33]: 0.83 L/kg; solubility [34]: 390 µg/mL (≈ 772 µM); clearance [35]: 3.8 mL/min/kg; Activity [36]: Non-Toxic; AUC/dose [37]: 1383 kg·ng·h/mL/mg; Therm solubility [38]: 85 µg/mL; bioavailability [39]: 27%; hepatocyte CLint [40]: 6.3 µL/min/1e6 cells; hepatocyte CLint [23]: 1.1 µL/min/1e6 cells
